Reference: the supplement of paper PMC10307832

What was measured:
Assay in all cases: relative viability (nuclei count vs DMSO), 5 days (fraction); higher = more cells survive
[1] = test system: 201T
Summary of the method: (§1)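 Dosing by pin tool came one day after lung cancer cell lines were seeded in 1536-well plates, using either one drug or a fixed anchor-drug dose plus five library-drug doses (not always all listed) in √10 steps. After 5 days, nuclei were counted on 4× images. Relative viability is treated-well nuclei count divided by vehicle-well nuclei count, and values are medians of duplicate plates.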

[2] = test system: ABC-1
Summary of the method: as §1

[3] = test system: CAL-12T
Summary of the method: as §1

[4] = test system: COR-L23
Summary of the method: as §1

[5] = test system: HCC-44
Summary of the method: as §1

[6] = test system: HOP-62
Summary of the method: as §1

[7] = test system: LC-2-ad
Summary of the method: as §1

[8] = test system: LCLC-103H
Summary of the method: as §1

[9] = test system: NCI-H1355
Summary of the method: as §1

[10] = test system: NCI-H1395
Summary of the method: as §1

[11] = test system: NCI-H1651
Summary of the method: as §1

[12] = test system: NCI-H1666
Summary of the method: as §1

[13] = test system: NCI-H1993
Summary of the method: as §1

[14] = test system: NCI-H2085
Summary of the method: as §1

[15] = test system: NCI-H2170
Summary of the method: as §1

[16] = test system: NCI-H2228
Summary of the method: as §1

[17] = test system: NCI-H2347
Summary of the method: as §1

[18] = test system: NCI-H23
Summary of the method: as §1

[19] = test system: NCI-H322M
Summary of the method: as §1

[20] = test system: NCI-H520
Summary of the method: as §1

[21] = test system: NCI-H647
Summary of the method: as §1

[22] = test system: NCI-H661
Summary of the method: as §1

[23] = test system: NCI-H838
Summary of the method: as §1

SMILES: O=C(O)CCCCC(CCSCc1ccccc1)SCc1ccccc1 (stereo not given) [CPI-613] + Cc1cc(Nc2cc(N3CCN(C)CC3)nc(Sc3ccc(NC(=O)C4CC4)cc3)n2)n[nH]1 [Tozasertib] (partner 0.1 µM)
- relative viability ([1]; first compound 5 µM): 0.913
- relative viability ([1]; first compound 15.81 µM): 0.846
- relative viability ([1]; first compound 50 µM): 0.8
- relative viability ([1]; first compound 158.11 µM): 0.443
- relative viability ([1]; first compound 500 µM): 0.209
- relative viability ([2]; first compound 5 µM): 0.215
- relative viability ([2]; first compound 15.81 µM): 0.189
- relative viability ([2]; first compound 50 µM): 0.189
- relative viability ([2]; first compound 158.11 µM): 0.179
- relative viability ([2]; first compound 500 µM): 0.207
- relative viability ([3]; first compound 5 µM): 0.284
- relative viability ([3]; first compound 15.81 µM): 0.253
- relative viability ([3]; first compound 50 µM): 0.256
- relative viability ([3]; first compound 158.11 µM): 0.0605
- relative viability ([3]; first compound 500 µM): 0.0057
- relative viability ([4]; first compound 5 µM): 0.208
- relative viability ([4]; first compound 15.81 µM): 0.145
- relative viability ([4]; first compound 50 µM): 0.192
- relative viability ([4]; first compound 158.11 µM): 0.11
- relative viability ([4]; first compound 500 µM): 0.0434
- relative viability ([5]; first compound 5 µM): 0.936
- relative viability ([5]; first compound 15.81 µM): 0.845
- relative viability ([5]; first compound 50 µM): 0.969
- relative viability ([5]; first compound 158.11 µM): 0.322
- relative viability ([5]; first compound 500 µM): 0.0777
- relative viability ([6]; first compound 5 µM): 0.383
- relative viability ([6]; first compound 15.81 µM): 0.305
- relative viability ([6]; first compound 50 µM): 0.286
- relative viability ([6]; first compound 158.11 µM): 0.191
- relative viability ([6]; first compound 500 µM): 0.0544
- relative viability ([7]; first compound 5 µM): 0.45
- relative viability ([7]; first compound 15.81 µM): 0.398
- relative viability ([7]; first compound 50 µM): 0.459
- relative viability ([7]; first compound 158.11 µM): 0.267
- relative viability ([7]; first compound 500 µM): 0.0577
- relative viability ([8]; first compound 5 µM): 0.441
- relative viability ([8]; first compound 15.81 µM): 0.389
- relative viability ([8]; first compound 50 µM): 0.47
- relative viability ([8]; first compound 158.11 µM): 0.387
- relative viability ([8]; first compound 500 µM): 0.424
- relative viability ([9]; first compound 5 µM): 0.541
- relative viability ([9]; first compound 15.81 µM): 0.512
- relative viability ([9]; first compound 50 µM): 0.508
- relative viability ([9]; first compound 158.11 µM): 0.314
- relative viability ([9]; first compound 500 µM): 0.112
- relative viability ([10]; first compound 5 µM): 0.691
- relative viability ([10]; first compound 15.81 µM): 0.632
- relative viability ([10]; first compound 50 µM): 0.653
- relative viability ([10]; first compound 158.11 µM): 0.752
- relative viability ([10]; first compound 500 µM): 0.612
- relative viability ([11]; first compound 5 µM): 0.705
- relative viability ([11]; first compound 15.81 µM): 0.588
- relative viability ([11]; first compound 50 µM): 0.77
- relative viability ([11]; first compound 158.11 µM): 0.275
- relative viability ([11]; first compound 500 µM): 0.109
- relative viability ([12]; first compound 5 µM): 0.558
- relative viability ([12]; first compound 15.81 µM): 0.634
- relative viability ([12]; first compound 50 µM): 0.614
- relative viability ([12]; first compound 158.11 µM): 0.233
- relative viability ([12]; first compound 500 µM): 0.155
- relative viability ([13]; first compound 5 µM): 0.631
- relative viability ([13]; first compound 15.81 µM): 0.669
- relative viability ([13]; first compound 50 µM): 0.559
- relative viability ([13]; first compound 158.11 µM): 0.507
- relative viability ([13]; first compound 500 µM): 0.426
- relative viability ([14]; first compound 5 µM): 0.769
- relative viability ([14]; first compound 15.81 µM): 0.683
- relative viability ([14]; first compound 50 µM): 0.734
- relative viability ([14]; first compound 158.11 µM): 0.386
- relative viability ([14]; first compound 500 µM): 0.105
- relative viability ([15]; first compound 5 µM): 0.732
- relative viability ([15]; first compound 15.81 µM): 0.55
- relative viability ([15]; first compound 50 µM): 0.694
- relative viability ([15]; first compound 158.11 µM): 0.347
- relative viability ([15]; first compound 500 µM): 0.183
- relative viability ([16]; first compound 5 µM): 0.304
- relative viability ([16]; first compound 15.81 µM): 0.204
- relative viability ([16]; first compound 50 µM): 0.236
- relative viability ([16]; first compound 158.11 µM): 0.146
- relative viability ([16]; first compound 500 µM): 0.112
- relative viability ([17]; first compound 5 µM): 0.526
- relative viability ([17]; first compound 15.81 µM): 0.561
- relative viability ([17]; first compound 50 µM): 0.566
- relative viability ([17]; first compound 158.11 µM): 0.552
- relative viability ([17]; first compound 500 µM): 0.524
- relative viability ([18]; first compound 5 µM): 0.348
- relative viability ([18]; first compound 15.81 µM): 0.284
- relative viability ([18]; first compound 50 µM): 0.337
- relative viability ([18]; first compound 158.11 µM): 0.223
- relative viability ([18]; first compound 500 µM): 0.0061
- relative viability ([19]; first compound 5 µM): 0.499
- relative viability ([19]; first compound 15.81 µM): 0.452
- relative viability ([19]; first compound 50 µM): 0.499
- relative viability ([19]; first compound 158.11 µM): 0.25
- relative viability ([19]; first compound 500 µM): 0.0634
- relative viability ([20]; first compound 5 µM): 0.42
- relative viability ([20]; first compound 15.81 µM): 0.378
- relative viability ([20]; first compound 50 µM): 0.352
- relative viability ([20]; first compound 158.11 µM): 0.48
- relative viability ([20]; first compound 500 µM): 0.375
- relative viability ([21]; first compound 5 µM): 0.384
- relative viability ([21]; first compound 15.81 µM): 0.244
- relative viability ([21]; first compound 50 µM): 0.286
- relative viability ([21]; first compound 158.11 µM): 0.0859
- relative viability ([21]; first compound 500 µM): 0.021
- relative viability ([22]; first compound 5 µM): 0.358
- relative viability ([22]; first compound 15.81 µM): 0.324
- relative viability ([22]; first compound 50 µM): 0.348
- relative viability ([22]; first compound 158.11 µM): 0.331
- relative viability ([22]; first compound 500 µM): 0.203
- relative viability ([23]; first compound 5 µM): 0.271
- relative viability ([23]; first compound 15.81 µM): 0.252
- relative viability ([23]; first compound 50 µM): 0.249
- relative viability ([23]; first compound 158.11 µM): 0.194
- relative viability ([23]; first compound 500 µM): 0.104
